Laboratory results published in US8263344B2, “Compounds regulating calreticulin, KDEL receptor and/or Erp-57 cell surface exposure and uses thereof to evaluate the efficiency of a cancer treatment” (Institut Gustave Roussy, priority 2006, dated 2012).

Assays:
CT26 tumour cells = experiment: Anti-tumour vaccination with treated (dying) CT26 cells and challenge with live tumour cells; assay type: in vivo, BALB/c mice; conditions: dying CT26 cells injected into one flank, rechallenge with live tumour cells in opposite flank 8 days later
CT26 cells = experiment: Phagocytosis of tumour cells by dendritic cells (DC); assay type: cell-based, BALB/c mice; conditions: within a few hours after treatment
Protocol: BM cells were flushed from the tibias and femurs of BALB/c mice with culture medium composed of RPMI 1640 medium (Invitrogen Life Technologies) supplemented with 10% heat-inactivated FBS (Invitrogen), sodium pyruvate, 50 μM 2-ME (Sigma), 10 mM HEPES (pH 7.4), and penicillin/streptomycin (Invitrogen). After one centrifugation, BM cells were resuspended in Tris-ammonium chloride for 2 min to lyse RBC. After one more centrifugation, BM cells (1×10^6 cells/ml) were cultured in medium supplemented with 100 ng/ml recombinant mouse FLT3 ligand (R&D systems) in 6-well plates (Costar Corning). After 7 days, the non-adherent and loosely adherent cells were harvested with Versene, washed and transferred in 12-well plates (1.5×10^6 cells/plate) for cocultures with tumour cells.
In 12-well plates, […] adherent CT26 cells were labelled with Celltracker Green (Calbiochem) and then incubated with drugs. In some experiments viable CT26 were coated with 2 μg/10^6 cells of chicken anti-CRT antibody (ABR affinity bioreagents) or an isotype control for 30 min prior to washing and feeding to dendritic cells Cs. Alternatively CT26 cells were coated with 2 μg/10^6 cells of rCRT on ice for 30 min and washed twice prior to addition to dendritic cells. Cells were then harvested, washed three times with medium supplemented with FBS and cocultured with immature DC for 2 hours at a ratio of 1:1 and 1:5. At the end of the incubation, cells were harvested with versene, pooled with non-adherent cells present in the supernatant, washed and stained with CD11c-FITC antibody. Phagocytosis was assessed by FACS analysis of double positive cells. Phagocytic indexes refer to the ratio between values obtained at 4° C. and values obtained at 37° C. of co-incubation between DC and tumour cells.

CT26 tumours [1] = experiment: Single intratumoural injection into established CT26 tumours, immunocompetent mice; assay type: in vivo, BALB/c mice; conditions: established 14-day-old CT26 tumours
CT26 tumours [2] = experiment: Single intratumoural injection into established CT26 tumours, athymic mice; design: species or system nu/nu Balb/c mice; conditions: mouse, in vivo
HeLa cells = experiment: Surface ERp57 detection (immunofluorescence, flow cytometry); assay type: cell-based, human; conditions: 2 h; MTX 1 μM, Tau 150 nM
Protocol: HeLa cells were cultured on cover slips (in RPM1160 medium supplemented with 10% fetal calf serum, L-glutamine and antibiotics), in the absence (control) or in the presence of 1 μM mitoxantrone (MTX, Sigma) for 2 h. For the intracellular stainings, HeLa cells were fixed and permeabilised by means of Cytofix/Cytoperm kit from Becton Dickinson according to the manufacturer's instructions. For the surface stainings, HeLa cells were fixed with paraformadehyde (4% w/v) on ice for 5 min. […] Nuclei were labelled with DAPI mounting medium (Vectashield). Fluorescence microscopy was analyzed with a Leica IRE2 equipped with a DC300F camera. Size bars represent 10 μm.
HeLa cells were treated with or without mitoxantrone (MTX, 1 μM) or tautomycin (Tau, 150 nM, Sigma) for 2 h. Cells were washed twice with PBS and fixed in PFA (4% w/v) for 5 min. HeLa cells were stained with an antibody against Erp57 (pAb from Abcam, ab10827) at 1:200 dilution or isotype control, in staining buffer (PBS, 1% FCS) for 30 min on ice, followed by washing. An anti-rabbit Alexa fluor 488 immunoglobulin conjugate (Molecular Probes-Invitrogen) diluted at 1:500 was added for an additional 30 min on ice before washing and analysed by flow cytometry (FACScan, Becton Dickinson). […] The CellQuest software was used to analyse the mean fluorescence intensity (MFI) and the percentage of ERp57 positive cells.
FIG. 12: ERp57 exposure depends on the activation of a caspase. • (A) HeLa cells were treated with MTX (1 μM) for 2 h in the presence or absence of 50 μM zVAD.fmk. The MFI of surface Erp57 positive cells was analysed as described in FIG. 9. • (B) HCT116 parental cells stably transfected with either a vector encoding p35 (Stennicke et al., 2002; Date et al., 2003) or with a PCMV vector (Sigma) as control, were treated with MTX (1 μM) for 2 h. The MFI of surface Erp57 positive cells was analysed as described in FIG. 9. • (C) HCT116 cells were pre-incubated in the presence of 50 μM biotinylated VAD.fmk (Calbiochem) for 2 h. […]

CT26 cytoplasts = experiment: CRT exposure on enucleated cells (cytoplasts); assay type: cell-based, murine
Protocol: FIG. 5A: CRT exposure after anthracyclin treatment in the absence of a nucleus. Intact cells or enucleated cells (cytoplasts) were treated for 2 hours with mitoxantrone, followed by immunofluorescence detection of CRT exposure. Inserts show the effective removal of Hoechst 33342-stainable nuclei from the cytoplasts.
Trypsinized CT26 cells were enucleated as described in the publication of Andreau, K. et al. Contagious apoptosis facilitated by the HIV-1 envelope. Fusion-induced cell-to-cell transmission of a lethal signal. J. Cell Sci. 117, 5643-53 (2004). Briefly, cells were treated in 2 ml of complete RPMI medium containing cytochalasin B (10 μg/ml; Sigma) and DNase I (80 U/ml; Sigma). Cell suspension was adjusted to a final concentration of 5×10^6/ml and incubated at 37° C. for 45 minutes before being layered onto a previously prepared discontinuous Ficoll (Pharmacia) density gradient (3 ml of 100%, in 1 ml of 90% and 3 ml of 55% Ficoll Paque layer containing 5 μg/ml cytochalasin B and 40 U/ml DNase I; gradients were prepared in ultracentrifuge tubes and pre-equilibrated at 37° C. in a CO2 incubator overnight). […] Then the cell surface CRT was detected (see materials and methods) and the viability was determined by with propidium iodine staining (2 μg/ml, Sigma) for 5 min followed by cytofluorometric analysis. […] Phagocytosis was assessed by FACS analysis of double positive cells.

MCA205, B16F10, J558 = experiment: CRT exposure on a panel of murine tumour cell lines; assay type: cell-based
HeLa, A549, HCT116 = experiment: CRT exposure on a panel of human tumour cell lines; assay type: cell-based

O=C1c2c(O)ccc(O)c2C(=O)c2c(NCCNCCO)ccc(NCCNCCO)c21 [mitoxantrone]
immunogenic apoptosis / immunogenic cell death (protection against tumour growth) (CT26 tumour cells): elicited immunogenic cell death | phagocytosis of treated tumour cells by DC (CT26 cells): acquired the property to be phagocytosed by DC | therapeutic effect of intratumoural injection, single agent, immunocompetent mice (CT26 tumours [1]): permanent regression in some but not all cases | therapeutic effect of intratumoural injection, single agent, nu/nu mice (CT26 tumours [2]): no cure | surface exposure of ERp57 (HeLa cells): appear on the surface | time to CRT exposure in enucleated cells (cytoplasts) (CT26 cytoplasts): ≤ 1 h | CRT exposure, murine tumour cell lines (MCA205, B16F10, J558): induced CRT exposure | CRT exposure, human tumour cell lines (HeLa, A549, HCT116): induced CRT exposure
